Assay results: patent publication US20180117171A1, “IMMUNOCONJUGATES FOR PROGRAMMING OR REPROGRAMMING OF CELLS” (President and Fellows of Harvard College, priority 2015, published 2018)
Where no end group is shown, it is not given here.

Assays:
[1] = system: CD4+ T cells from OT-II mice; assay: CD4 T cell proliferation with peptide-MPS stimulated BMDCs; format: cell-based; conditions: compared to peptide stimulation only
Description: FIG. 54A-C are a set of graphs showing the effect of peptide-MPS conjugates on CD4 T cell proliferation, as evaluated in vitro. BMDCs were stimulated with […] (peptide) (SEQ ID NO: 19), […] (SEQ ID NO: 19) conjugated to MPS through SMCC (SMCC), and […] BMDCs were then washed thoroughly and co-cultured with CD4^+ T cells from OT-II mice. OT-II mice are enriched for CD4^+ T cells recognizing the […] (SEQ ID NO: 20) peptide.

[2] = system: primary bone marrow dendritic cells (BMDC); assay: dexamethasone effect on surface markers of bone marrow dendritic cells (FACS); format: cell-based, mouse
Experimental: Flow cytometry was conducted according to standard protocols. Cells were harvested, washed, and resuspended to a final cell concentration of 1-5 million cells/ml in ice cold phosphate buffered saline (PBS) with 10% fetal bovine serum (FBS) and 1% sodium azide. Anti-mouse antibodies including anti-CD11c, MHC II, CD80, CD86, and OVA 257-264 bound to H-2Kb were then aliquotted according to the manufacturer's recommended dilutions (Ebioscience). During staining, cells were incubated for 20 minutes at room temperature and then 20 minutes on ice. The cells were then washed and kept on ice until analysis. Some samples were fixed in 1% paraformaldehyde (PFA) for later flow cytometric studies. Flow cytometry was conducted on the BD LSR II or the BD Fortessa. Analysis was done using Flowjo (Tree Star Inc.).
The listed concentrations of dexamethasone were added on day 6 and day 8. For the lipopolysaccharide (LPS) condition, LPS was added to a concentration of 50 ng/ml on day 9. […] “LPS” samples had LPS, but no dexamethasone.
For these studies, dexamethasone was added on day 6 and day 8. LPS was added to a concentration of 50 ng/ml on day 9. […] “LPS” samples had LPS, but no dexamethasone.

BMDC [3] = assay: IL-12p70 elaboration from BMDC (ELISA); conditions: 100 nM, LPS 50 ng/ml
Jaws II cells = assay: transwell migration of Jaws II DC; format: cell-based; conditions: 10^−6 or 10^−7 M dexamethasone
BMDC [4] = assay: MHC II and co-stimulatory molecule surface presentation on BMDC after LPS; format: cell-based, mouse; conditions: 100 nM compound, next day 50 ng/ml LPS; mean ± SD
Experimental: Day 9 BMDC were harvested from 100 mm diameter plates and seeded into 6 wells of a tissue culture plate in R10 media containing 100 nM dexamethasone or dexamethasone-[…] […] The BD LSR Fortessa was used to analyze the cells. Histograms were created using Flowjo (Tree Star Inc.) and statistical analysis was done using InStat (GraphPad Software).

B3Z T cell line [5] = assay: B3Z cell: DC co-culture, X-gal assay; format: cell-based
Experimental: (§1) 15 hours later, the cells were fixed and stained with X-gal (Imgenix) according to the manufacturer's instructions. The cells were photographed at 10× magnification using a standard bright field microscope. A similar protocol was followed for the chlorophenol […] staining assay (Imgenix), except that after 15 hours, the cells were washed and lysed in a chlorophenol red-β-D-galactopyranoside staining buffer. After a 4 hour incubation at 37° C., the absorbance at 590 nm was obtained.
Following a 15 hour co-culture, the cells were fixed, stained with X-gal, and imaged. The images were all obtained at 10× magnification and represent a typical distribution of cells (FIG. 29).

B3Z T cell line [6] = assay: B3Z cell: DC co-culture, CPRG assay; format: cell-based; conditions: antigen concentrations greater than 10 nM
Experimental: as §1
The cells were then lysed and treated with the β-galactosidase substrate, chlorophenol red-β-D-galactopyranoside (CPRG). After 4 hours of incubation, the absorbance at 590 nm was obtained. Staining was due to β a-galactosidase expression driven by elements of the IL-2 promoter.

[7] = system: mononuclear cells isolated from the bone marrow; assay: DC induced in vitro from bone marrow cells with GM-CSF with or without TSLP, VIP or TGF-β; format: cell-based, C57BL/6 mice; conditions: for expression of IL-6 and IL-12: GM-CSF in the presence of factor, bacterial stimulation, compared to GM-CSF alone; for CD11c+/CD86+ in total BM cells: 7 day incubation
Description: The surface phenotypes of CD11c+DC in the BM culture were monitored by flow cytometry and the proportionality of each phenotype is expressed as a percent (%) of the total mononuclear cells (MNC) (FIG. 5, Table 1).
The present invention provides for a material-based local application of GM-CSF with appropriate DC influencing factors that leads to tolerogenic DCs (tDCs), and subsequent enrichment of iTreg cells. Candidate biofactors include thymic stromal lymphopoietin (TSLP), vasoactive intestinal peptide (VIP), and transforming growth factor-beta (TGF-β). Screening is based on the induced DC's anti-inflammatory properties. […] Overall, these observations that the combination of GM-CSF with TSLP efficiently induces DC with an anti-inflammatory phenotype.

[8] = system: bone marrow derived dendritic cells (BMDCs); assay: antigen presentation of […]-MPS conjugate by BMDCs (flow cytometry); format: cell-based; conditions: 18 hours, versus peptide adsorbed to MPS
Description: FIG. 53 is a pair of graphs evaluating the antigen presentation of […] (SEQ ID NO: 18)-MPS conjugate. […] Percentage of BMDCs presenting the peptide was quantified using flow cytometry.

[9] = release profile of GM-CSF from polymer delivery vehicle; format: physicochemical; conditions: within the first 5 days
Description: (§2) FIGS. 4A-F are graphs and images showing data on the in vivo control of DC recruitment and programming. […] Numbers in FACS plots indicate the percentage of the cell population positive for both markers. (4D) is the percentage of total cells that were positive for the DC markers CD11c and CD86, in blank (-∘-) and GM-CSF (-•-) loaded polymers as a function of time post implantation. (4E) The total number of DCs isolated from blank (-∘-) and GM-CSF (-•-) loaded polymers as a function of time post implantation. (4F) The fractional increase in CD11c(+)CD86(+) DCs isolated from polymers at day-14 after implantation in response to doses of 1000, 3000 and 7000 ng of GM-CSF as compared to the control. Scale bar—500 μm. Values in 4A, 4D, 4E, and 4F represent mean and standard deviation (n=4 or 5); * P<0.05; ** P<0.01.
(§3) The polymer delivery vehicle presents GM-CSF in a defined spatiotemporal manner in vivo, following introduction into the tissue of interest. Exemplary vehicle quickly release approximately 60% of the bioactive GM-CSF load within the first 5 days, followed by slow and sustained release of bioactive GM-CSF over the next 10 days (FIG. 4A), to allow diffusion of the factor through the surrounding tissue and effectively recruit resident DCs. Polymers were loaded with 3 μg of GM-CSF and implanted into the dorsal subcutaneous site of C57BL/6J mice. […]

JAWSII DCs = assay: GM-CSF effects on JAWSII DC recruitment, proliferation, emigration and activation in vitro; format: cell-based
Experimental: FIGS. 3A-C are graphs and FIG. 3D is a set of images showing data related to the concentration dependent effects of GM-CSF on DC proliferation, recruitment, activation and emigration in vitro. […] Migration counts measured at 12 hours. (3B) is the effects of GM-CSF concentration on the proliferation of JAWSII DCs. 0 (white bar), 50 (grey bar), and 500 ng/ml (black bar) of GM-CSF. […] Migration counts taken at 6 hours. (3D) are representative photomicrographs of TNF-α and LPS stimulated JAWSII DCs cultured in 5-50 or 500 ng/ml GM-CSF and stained for the activation markers MHCII and CCR7. Scale bar in (3D)—20 μm. Values in (3A-3C) represent mean and standard deviation (n=4); * P<0.05; ** P<0.01
High concentrations (>100 ng/ml) of GM-CSF, however, inhibited DC migration toward the LN-derived chemokine CCL19 (FIG. 3C).

CD11c(+)CD86(+) DCs = assay: in vivo DC recruitment to subcutaneous GM-CSF loaded polymers; design: species or system C57BL/6J mice
Description: as §2, §3

[10] = system: bone marrow derived murine dendritic cells; assay: chemokinesis of bone marrow dendritic cells toward alginate gels, time-lapse imaging; format: cell-based; conditions: alginate gel with GM-CSF, cells followed for 8 hours
Experimental: GM-CSF enhanced chemokinesis of bone marrow dendritic cells in vitro. Alginate gels with or without GM-CSF ([…]) were placed in a petri dish and surrounded with collagen containing bone marrow derived murine dendritic cells (FIG. 14A). The cells were followed for 8 hours using time-lapse imaging. The velocity of the cells was calculated from initial and final position values and is plotted in FIGS. 14B and C in μm/min. Chemotaxis toward the alginate is given as the positive x coordinate (positive x is directed radially inward). Each dot reflects the velocity of 1 cell, and each plot is representative of three experiments. The average migration speed of cells in the presence of GM-CSF was 3.1 μm/min compared to 1.1 μm/min in the absence of GM-CSF.

Compound: CISQAVHAAHAEINEAGR (SEQ ID NO: 19) conjugated to MPS through SMCC: ovalbumin CD4 epitope conjugated to MPS through stable SMCC linker (also: conjugated to MPS via SMCC linker)
- CD4 T cell proliferation [1]: significantly higher T cell proliferation

Compound: C[C@@H]1C[C@H]2[C@@H]3CCC4=CC(=O)C=C[C@]4(C)[C@@]3(F)[C@@H](O)C[C@]2(C)[C@@]1(O)C(=O)CO [dexamethasone]
- dexamethasone concentrations with MHC II, CD80, CD86 staining reduced compared to LPS positive control ([2]; LPS treated): greater than or equal to 10^−8 M
- dexamethasone concentrations that reduced CD11c expression ([2]; immature BMDC cultures): ≥ 10^−8 M
- dexamethasone concentration at which inhibition of CD11c+ staining begins ([2]; mature DC treated with LPS 50 ng/ml): around 10^−8 M
- reduction of IL-12 elaboration from BMDC, factor (BMDC [3]): ~4
- number of cells that migrated to CCL20 relative to control (Jaws II cells): approximately 1.8 fold
- MFI CD80 (BMDC [4]): 3100 ± 100^δ
- MFI CD86 (BMDC [4]): 2050 ± 5^β
- MFI MHC II (BMDC [4]): 540 ± 20^α

Compound: SIINFEKL (Exemplary ovalbumin peptide.)
- X-gal staining of B3Z cells (B3Z T cell line [5]; 0.05 μM peptide): many positive cells
- X-gal staining of B3Z cells (B3Z T cell line [5]; 1.0 μM peptide): numerous positive cells
- CPRG hydrolysis versus dexamethasone-SIINFEKL groups (B3Z T cell line [6]): greater CPRG hydrolysis

Compound: TSLP: thymic stromal lymphopoietin
- expression of IL-6 and IL-12 [7]: diminished expression

Compound: SPDP CSIINFEKL (SEQ ID NO: 18)-MPS: ovalbumin CD8 epitope CSIINFEKL conjugated to MPS through reducible SPDP linker (also: SPDP linker to MPS)
- BMDCs presenting the peptide ([8]; 10 nM): significantly better presented
- BMDCs presenting the peptide ([8]; 100 nM): comparable levels

Compound: VIP: vasoactive intestinal peptide (HSDAVFTDNYTRLRKQMAVKKYLNSILN; ends and bridges not checked; UniProt P01282 125-152, looked up)
- expression of IL-6 and IL-12 [7]: diminished expression
- IL-10 production by induced DC ([7]; GM-CSF plus factor (100 ng/ml), 7 days, bacterial challenge): did not up-regulate

Compound: GM-CSF
- bioactive GM-CSF load released [9]: approximately 60%
- CD11c+/CD86+ in total BM cells [7]: 14.7%
- DC activation via TNF-α and LPS stimulation (MHCII, CCR7 expression) (JAWSII DCs; high concentrations of GM-CSF): suppressed DC activation
- DC recruitment and proliferation (JAWSII DCs; in vitro): enhanced DC recruitment and proliferation in a dose-dependent manner
- GM-CSF concentrations that inhibited DC migration toward CCL19 (JAWSII DCs; transwell): > 100 ng/mL
- CD11c(+)CD86(+) DCs by FACS (CD11c(+)CD86(+) DCs; 3 μg GM-CSF loaded polymers): increased not just the total cell number, but also the percentage of infiltrating cells that were DCs
- total cellular infiltration at the site (CD11c(+)CD86(+) DCs; 3 μg GM-CSF, day-14, compared to control): significantly enhanced
- average migration speed of cells [10]: 3.1 μm/min

Compound: CISQAVHAAHAEINEAGR (SEQ ID NO: 19) conjugated to MPS through SPDP: ovalbumin CD4 epitope conjugated to MPS through reducible SPDP linker (also: conjugated to MPS via SPDP linker)
- CD4 T cell proliferation [1]: significantly higher T cell proliferation

Compound: TGF-β
- CD11c+/CD86+ in total BM cells [7]: 10.5%
- expression of IL-6 and IL-12 [7]: diminished expression
